Literature values in patent US20100135983A1, “Anti-inflammatory compositions and methods” (Searete LLC, a limited liability corporation of the State …, priority 2008, published 2010).

Legend:
proteasome = conditions: cultured breast cancer cells; disulfiram bound to copper
Src family kinase = conditions: also its dependent cellular responses
lethal septic shock = conditions: mice
[1] = single agent, infused at 400 mg over one hour
[2] = system: Src family kinases (Src, Lck, Yes, Fyn); conditions: at nanomolar concentrations
Epha1 = conditions: at nanomolar concentrations

In the case of `CCN(CC)C(=S)SSC(=S)N(CC)CC` [disulfiram, 1-(diethylthiocarbamoyldisulfanyl)-N,N-diethyl-methanethioamide], the proteasomal activity (proteasome) is listed as “inhibits proteasomal activity”.
For `CCN(CC)CCCC(C)Nc1ccnc2cc(Cl)ccc12` (stereo not drawn) [Chloroquine], the “inhibition of CpG-induced Src family kinase activation” value (Src family kinase) is given as “does not inhibit”.
In the case of `Cl.Cl.Nc1ccccc1Oc1ccc2c(N)nsc2c1` [Example M62812, 3-amino-6-(2-aminophenoxy)-1,2-benzisothiazole dihydrochloride], the “prevention of lethal septic shock” value (lethal septic shock) is given as “prevents lethal septic shock”.
For `CCN(CC)CCCC(C)Nc1ccnc2cc(Cl)ccc12.O=P(O)(O)O.O=P(O)(O)O` (stereo not drawn) [chloroquine phosphate, 7-chloro-4-[[4-(diethylamino)-1-methylbutyl]amino]quinoline phosphate (1:2)], the “tolerability of intravenous infusion” value [1] is given as “without complication”.
In the case of `Cc1nc(Nc2ncc(C(=O)Nc3c(C)cccc3Cl)s2)cc(N2CCN(CCO)CC2)n1.O` [dasatinib, N-(2-chloro-6-methylphenyl)-2-[[6-[4-(2-hydroxyethyl)-1-piperazinyl]-2-methyl-4-pyrimidinyl]amino]-5-thiazolecarboxamide, monohydrate], the “inhibition of Src family kinases (Src, Lck, Yes, Fyn)” value [2] is listed as “inhibits” and the “inhibition of Epha1” value (Epha1) is listed as “inhibits”.
